# According to ChEMBL document CHEMBL1140536, “Versatile templates for the development of novel kinase inhibitors: Discovery of novel CDK inhibitors” (Bioorg Med Chem Lett, 2007):
# Test system: A2780
# Assay: Growth inhibition of A2780 cells after 24 hrs by thymidine incorporation assay
# Format: functional, cell-based
# Settings: Homo sapiens, A2780, 24 h
row,Structure (SMILES),IC50
1,Brc1cnc2c(NCc3ccncc3)nc(-c3ccccc3)cn12,2000 nM

# Test system: not listed separately
# Assay: Inhibition of recombinant cyclin A/CDK2 expressed in Sf9 cells
# Design: species or system Homo sapiens
# Settings: not given
row,Structure (SMILES),IC50
1,Brc1cnc2c(NCc3ccncc3)nc(-c3ccccc3)cn12,440 nM
2,Clc1cccc(-c2cc(NCc3ccncc3)n3nccc3n2)c1Cl,500 nM
3,Brc1cnn2c(NCc3ccncc3)cc(-c3ccccc3)cc12,4500 nM

# Continued, values first:
row,IC50,Structure (SMILES)
1,500 nM,c1ccc(-c2cc(NCc3ccncc3)n3nccc3n2)cc1
2,800 nM,Fc1ccccc1-c1cn2ccnc2c(NCc2ccncc2)n1
3,700 nM,Brc1cnc2c(NCc3ccncc3)cc(-c3ccccc3)cn12
